According to patent publication US10052330B2, “Substituted pyrido[3,4-b]pyrazines as Syk inhibitors” (HUTCHISON MEDIPHARMA LIMITED, priority 2011, dated 2018):
Read-outs that look alike come from different tables or passages of the source.

Assays:
Syk kinase = Syk kinase (Homo sapiens, UniProt P43405); test: Syk kinase enzymatic assay (Kit-Tyr 2 Peptide); assay type: biochemical
RBL-2H3 cells = test: IgE-induced Beta-hexosaminidase secretion in RBL-2H3 cells; assay type: cell-based; settings: Rattus norvegicus
[1] = 8 concentrations, 1 μM down to 0.0003 μM, upper bound of each range is 'less than', read-out: IC50: Enzymatic Activity (Syk kinase)
[2] = RBL-2H3, RBL-2H3 cells sensitized with SPE-7, stimulated with DNP-BSA, upper bound of each range is 'less than', read-out: IC50, IgE-induced Beta-hexosaminidase secretion

| IC50 (Syk kinase; [1]) | SMILES | IC50 (RBL-2H3 cells; [2]) | IC50 (Syk kinase) | IC50 (RBL-2H3 cells; RBL-2H3, read-out: IC50, IgE-induced Beta-hexosaminidase secretion) |
| --- | --- | --- | --- | --- |
| 0.001 to 0.1 µM | CN1CCN(c2ccc(-c3cc4nccnc4c(NCC4CNCCC4(F)F)n3)cc2)CC1 (centres unmarked) [Compound 293] | 0.1 to 1 µM |  |  |
| 0.001 to 0.1 µM | Fc1cc(-c2cc3nccnc3c(NCC3CNCCC3(F)F)n2)ccc1N1CCOCC1 (centres unmarked) [Compound 294] | 0.001 to 0.1 µM |  |  |
| 0.001 to 0.1 µM | Cc1cc(-c2cc3nccnc3c(NCC3CNCCC3(F)F)n2)ccc1N1CCOCC1 (centres unmarked) [Compound 295] | 0.001 to 0.1 µM |  |  |
| 0.001 to 0.1 µM | COc1ccc(-c2cc3nccnc3c(NCC3CNCCC3(F)F)n2)cc1F (centres unmarked) [Compound 296] | 0.001 to 0.1 µM |  |  |
| 0.001 to 0.1 µM | CC(C)Oc1ccc(-c2cc3nccnc3c(NCC3CNCCC3(F)F)n2)cc1F (centres unmarked) [Compound 297] | 0.001 to 0.1 µM |  |  |
| 0.001 to 0.1 µM | COc1ccc(-c2cc3nccnc3c(NCC3CNCCC3(F)F)n2)cc1Cl (centres unmarked) [Compound 298] | 0.001 to 0.1 µM |  |  |
| 0.001 to 0.1 µM | CNc1ccc(-c2cc3nccnc3c(NCC3CNCCC3(F)F)n2)cc1F (centres unmarked) [Compound 300] | 0.001 to 0.1 µM |  |  |
| 0.001 to 0.1 µM | CN(C)c1ccc(-c2cc3nccnc3c(NCC3CNCCC3(F)F)n2)cc1F (centres unmarked) [Compound 301] | 0.001 to 0.1 µM |  |  |
| 0.001 to 0.1 µM | CNc1ccc(-c2cc3nccnc3c(NCC3CNCCC3(F)F)n2)cn1 (centres unmarked) [Compound 302] | 0.001 to 0.1 µM |  |  |
| 0.1 to 1 µM | CN(C)Cc1ccc(-c2cc3nccnc3c(NCC3CNCCC3(F)F)n2)cc1 (centres unmarked) [Compound 303] | 0.1 to 1 µM |  |  |
| 0.1 to 1 µM | CN(C)C(=O)c1ccc(-c2cc3nccnc3c(NCC3CNCCC3(F)F)n2)cc1 (centres unmarked) [Compound 304] | 0.001 to 0.1 µM |  |  |
| 0.001 to 0.1 µM | CC(=O)N1CCN(c2ccc(-c3cc4nccnc4c(NCC4CNCCC4(F)F)n3)cc2)CC1 (centres unmarked) [Compound 305] | 0.001 to 0.1 µM |  |  |
| 0.001 to 0.1 µM | CNC(=O)COc1ccc(-c2cc3nccnc3c(NCC3CNCCC3(F)F)n2)cc1 (centres unmarked) [Compound 306] | 0.001 to 0.1 µM |  |  |
| 0.001 to 0.1 µM | FC1(F)CCNCC1CNc1nc(-c2ccc(N3CCNCC3)cc2)cc2nccnc12 (centres unmarked) [Compound 307] | 0.001 to 0.1 µM |  |  |
| 0.001 to 0.1 µM | CC1CN(c2ccc(-c3cc4nccnc4c(NCC4CNCCC4(F)F)n3)cc2)CCO1 (centres unmarked) [Compound 309] | 0.001 to 0.1 µM |  |  |
| 0.001 to 0.1 µM | CS(=O)(=O)c1ccc(-c2cc3nccnc3c(NCC3CNCCC3(F)F)n2)cc1 (centres unmarked) [Compound 310] | 0.001 to 0.1 µM |  |  |
| 0.001 to 0.1 µM | CCn1cc(-c2cc3nccnc3c(NCC3CNCCC3(F)F)n2)cn1 (centres unmarked) [Compound 311] | 0.001 to 0.1 µM |  |  |
| 0.001 to 0.1 µM | OCCN1CCN(c2ccc(-c3cc4nccnc4c(NCC4CNCCC4(F)F)n3)cc2)CC1 (centres unmarked) [Compound 312] | 0.001 to 0.1 µM |  |  |
| 0.001 to 0.1 µM | CN(c1ccc(-c2cc3nccnc3c(NCC3CNCCC3(F)F)n2)cc1)S(C)(=O)=O (centres unmarked) [Compound 313] | 0.001 to 0.1 µM |  |  |
| 0.001 to 0.1 µM | FC1(F)CCNCC1CNc1nc(-c2cnn(C3CCOCC3)c2)cc2nccnc12 (centres unmarked) [Compound 314] | 0.001 to 0.1 µM |  |  |
| 0.001 to 0.1 µM | OCCn1cc(-c2cc3nccnc3c(NCC3CNCCC3(F)F)n2)cn1 (centres unmarked) [Compound 315] | 0.001 to 0.1 µM |  |  |
| 0.001 to 0.1 µM | CC(=O)N1CCN(c2ccc(-c3cc4nccnc4c(NCC4CNCCC4(F)F)n3)cn2)CC1 (centres unmarked) [Compound 316] | 0.001 to 0.1 µM |  |  |
| 0.001 to 0.1 µM | CC(=O)N1CCN(c2ccc(-c3cc4nccnc4c(NCC4CNCCC4(F)F)n3)cc2F)CC1 (centres unmarked) [Compound 318] | 0.001 to 0.1 µM |  |  |
| 0.001 to 0.1 µM | CC(=O)N1CCC(n2cc(-c3cc4nccnc4c(NCC4CNCCC4(F)F)n3)cn2)CC1 (centres unmarked) [Compound 320] | 0.001 to 0.1 µM |  |  |
| 0.001 to 0.1 µM | CS(=O)(=O)N1CCC(n2cc(-c3cc4nccnc4c(NCC4CNCCC4(F)F)n3)cn2)CC1 (centres unmarked) [Compound 321] | 0.001 to 0.1 µM |  |  |

| IC50 (Syk kinase; [1]) | SMILES | IC50 (RBL-2H3 cells; [2]) | IC50 (Syk kinase) | IC50 (RBL-2H3 cells; RBL-2H3, read-out: IC50, IgE-induced Beta-hexosaminidase secretion) |
| --- | --- | --- | --- | --- |
| 0.001 to 0.1 µM | O=C(C1CC1)N1CCO[C@H](CNc2nc(-c3ccc(N4CCOCC4)cc3)cc3nccnc23)C1 [Compound 322] | 0.1 to 1 µM |  |  |
| 0.001 to 0.1 µM | O=C(C(F)F)N1CCO[C@H](CNc2nc(-c3ccc(N4CCOCC4)cc3)cc3nccnc23)C1 [Compound 323] | 0.001 to 0.1 µM |  |  |
| 0.001 to 0.1 µM | N#CCC(=O)N1CCO[C@H](CNc2nc(-c3ccc(N4CCOCC4)cc3)cc3nccnc23)C1 [Compound 324] | 0.001 to 0.1 µM |  |  |
| 0.001 to 0.1 µM | CS(=O)(=O)N1CCO[C@H](CNc2nc(-c3ccc(N4CCOCC4)cc3)cc3nccnc23)C1 [Compound 332] | 0.001 to 0.1 µM |  |  |
| 0.001 to 0.1 µM | NS(=O)(=O)N1CCO[C@H](CNc2nc(-c3ccc(N4CCOCC4)cc3)cc3nccnc23)C1 [Compound 333] | 0.001 to 0.1 µM |  |  |
|  | O=C(CF)N1CCO[C@H](CNc2nc(-c3ccc(N4CCOCC4)cc3)cc3nccnc23)C1 [Compound 340] |  | 0.001 to 0.1 µM | 0.001 to 0.1 µM |
| 0.001 to 0.1 µM | CCS(=O)(=O)N1CCO[C@H](CNc2nc(-c3ccc(N4CCOCC4)cc3)cc3nccnc23)C1 [Compound 346] | 0.001 to 0.1 µM |  |  |
| 0.001 to 0.1 µM | NC(=O)N1CCO[C@H](CNc2nc(-c3ccc(N4CCOCC4)cc3)cc3nccnc23)C1 [Compound 347] | 0.001 to 0.1 µM |  |  |
| 0.001 to 0.1 µM | CS(=O)(=O)N1CCN(c2ccc(-c3cc4nccnc4c(N4CC[C@H](CO)C4)n3)cc2)CC1 [Compound 362] | 0.001 to 0.1 µM |  |  |
| 0.001 to 0.1 µM | Fc1cc(-c2cc3nccnc3c(NC[C@@H]3CNCCC3(F)F)n2)ccc1N1CCOCC1 [Compound 368, (S)—N-((4,4-difluoropiperidin-3-yl)methyl)-7-(3-fluoro-4-morpholinophenyl) pyrido[4,3-b]pyrazin-5-amine] | 0.001 to 0.1 µM |  |  |
| 0.001 to 0.1 µM | Cc1cc(-c2cc3nccnc3c(NC[C@@H]3CNCCC3(F)F)n2)ccc1N1CCOCC1 [Compound 370, (S)—N-((4,4-difluoropiperidin-3-yl)methyl)-7-(3-methyl-4-morpholinophenyl) pyrido[4,3-b]pyrazin-5-amine] | 0.001 to 0.1 µM |  |  |
| 0.001 to 0.1 µM | Cc1cc(-c2cc3nccnc3c(NC[C@H]3CNCCC3(F)F)n2)ccc1N1CCOCC1 [Compound 371, (R)—N-((4,4-difluoropiperidin-3-yl)methyl)-7-(3-methyl-4-morpholinophenyl)pyrido[4,3-b]pyrazin-5-amine] | 0.001 to 0.1 µM |  |  |
| 0.001 to 0.1 µM | CN1CCN(c2ccc(-c3cc4nccnc4c(NC[C@@H]4CNCCC4(F)F)n3)cc2)CC1 [Compound 372, (S)—N-((4,4-difluoropiperidin-3-yl)methyl)-7-(4-(4-methylpiperazin-1-yl)phenyl)pyrido[4,3-b]pyrazin-5-amine] | 0.1 to 1 µM |  |  |
| 0.1 to 1 µM | CN1CCN(c2ccc(-c3cc4nccnc4c(NC[C@H]4CNCCC4(F)F)n3)cc2)CC1 [Compound 373, (R)—N-((4,4-difluoropiperidin-3-yl)methyl)-7-(4-(4-methylpiperazin-1-yl)phenyl)pyrido[4,3-b]pyrazin-5-amine] | 0.1 to 1 µM |  |  |
| 0.001 to 0.1 µM | FC1(F)CCNC[C@H]1CNc1nc(-c2ccc(N3CCOCC3)nc2)cc2nccnc12 [Compound 374, (S)—N-((4,4-difluoropiperidin-3-yl)methyl)-7-(6-morpholinopyridin-3-yl)pyrido[4,3-b]pyrazin-5-amine] | 0.001 to 0.1 µM |  |  |
| 0.001 to 0.1 µM | F[C@@]1(CNc2nc(-c3ccc(N4CCOCC4)cc3)cc3nccnc23)CCCNC1 [Compound 376, (S)—N-((3-fluoropiperidin-3-yl)methyl)-7-(4-morpholinophenyl)pyrido[4,3-b]pyrazin-5-amine] | 0.001 to 0.1 µM |  |  |
| 0.001 to 0.1 µM | CC(=O)N1CCN(c2ccc(-c3cc4nccnc4c(NC[C@@H]4CNCCC4(F)F)n3)cc2)CC1 [Compound 384, (S)-1-(4-(4-(5-((4,4-difluoropiperidin-3-yl)methylamino)pyrido[4,3-b]pyrazin-7-yl)phenyl)piperazin-1-yl)ethanone] | 0.001 to 0.1 µM |  |  |
| 0.001 to 0.1 µM | CC(=O)N1CCN(c2ccc(-c3cc4nccnc4c(NC[C@H]4CNCCC4(F)F)n3)cc2)CC1 [Compound 385, (R)-1-(4-(4-(5-((4,4-difluoropiperidin-3-yl)methylamino)pyrido[4,3-b]pyrazin-7-yl)phenyl)piperazin-1-yl)ethanone] | 0.001 to 0.1 µM |  |  |
| 0.001 to 0.1 µM | C[C@H]1CN(c2ccc(-c3cc4nccnc4c(NC[C@@H]4CNCCO4)n3)cc2F)CCO1 [Compound 386, 7-(3-fluoro-4-((S)-2-methylmorpholino)phenyl)-N—((S)-morpholin-2-ylmethyl)pyrido[4,3-b]pyrazin-5-amine] | 0.1 to 1 µM |  |  |
| 0.001 to 0.1 µM | C[C@@H]1CN(c2ccc(-c3cc4nccnc4c(NC[C@@H]4CNCCO4)n3)cc2F)CCO1 [Compound 387, 7-(3-fluoro-4-((R)-2-methylmorpholino)phenyl)-N—((S)-morpholin-2-ylmethyl)pyrido[4,3-b]pyrazin-5-amine] | 0.001 to 0.1 µM |  |  |
| 0.001 to 0.1 µM | CNC(=O)COc1ccc(-c2cc3nccnc3c(NC[C@@H]3CNCCC3(F)F)n2)cc1 [Compound 388, (S)-2-(4-(5-((4,4-difluoropiperidin-3-yl)methylamino)pyrido[4,3-b]pyrazin-7-yl)phenoxy)-N-methylacetamide] | 0.001 to 0.1 µM |  |  |
| 0.001 to 0.1 µM | CNC(=O)COc1ccc(-c2cc3nccnc3c(NC[C@H]3CNCCC3(F)F)n2)cc1 [Compound 389, (R)-2-(4-(5-((4,4-difluoropiperidin-3-yl)methylamino)pyrido[4,3-b]pyrazin-7-yl)phenoxy)-N-methylacetamide] | 0.001 to 0.1 µM |  |  |
| 0.001 to 0.1 µM | CS(=O)(=O)c1ccc(-c2cc3nccnc3c(NC[C@@H]3CNCCC3(F)F)n2)cc1 [Compound 390, (S)—N-((4,4-difluoropiperidin-3-yl)methyl)-7-(4-(methylsulfonyl)phenyl)pyrido[4,3-b]pyrazin-5-amine] | 0.001 to 0.1 µM |  |  |
| 0.001 to 0.1 µM | CCn1cc(-c2cc3nccnc3c(NC[C@@H]3CNCCC3(F)F)n2)cn1 [Compound 392, (S)—N-((4,4-difluoropiperidin-3-yl)methyl)-7-(1-ethyl-1H-pyrazol-4-yl)pyrido[4,3-b]pyrazin-5-amine] | 0.001 to 0.1 µM |  |  |
